Results as given in patent US20040001845A1, “Cytotoxic T-cell epitopes of HIV-1 virus” (priority 2002, published 2004).

Test system: PBMC (HIV-1-specific CD8+ T cells) of subject AC-06
Experiment: IFN-γ Elispot assay of HIV-1-specific CD8+ T cell responses in subject AC-06
Format: cell-based, human
[1] = subject AC-06, 0 months after infection
[2] = subject AC-06, 2 months after infection
[3] = subject AC-06, 6 months after infection
[4] = subject AC-06, 12 months after infection
[5] = subject AC-06, 18 months after infection
[6] = subject AC-06, 20 months after infection
[7] = subject AC-06, 24 months after infection
[8] = subject AC-06, 29.5 months after infection
[9] = subject AC-06, 34 months after infection

With KTKPPLPSVKK [A3-KK11] the “magnitude of HIV-1-specific CD8+ T cell responses at the single epitope level” value (shortened to “magnitude”) [1] was 0 SFC/Million PBMC, the “magnitude” value [2] was 0 SFC/Million PBMC and the “magnitude” value [3] was 0 SFC/Million PBMC. The “magnitude” value [4] was 0 SFC/Million PBMC, the “magnitude” value [5] was 0 SFC/Million PBMC and the “magnitude” value [6] was 150 SFC/Million PBMC. The “magnitude” value [7] was 340 SFC/Million PBMC, the “magnitude” value [8] was 600 SFC/Million PBMC and the “magnitude” value [9] was 1200 SFC/Million PBMC.

With RIRTWKSLVK [A3-RK10] the “magnitude” value [1] was 0 SFC/Million PBMC, the “magnitude” value [2] was 0 SFC/Million PBMC and the “magnitude” value [3] was 0 SFC/Million PBMC. The “magnitude” value [4] was 0 SFC/Million PBMC, the “magnitude” value [5] was 0 SFC/Million PBMC and the “magnitude” value [6] was 180 SFC/Million PBMC. For the same sequence, the “magnitude” value [7] was 270 SFC/Million PBMC, the “magnitude” value [8] was 1100 SFC/Million PBMC and the “magnitude” value [9] was 1600 SFC/Million PBMC.

RLRDLLLIVTR [A3-RR11] was tested, and the “magnitude” value [1] was 0 SFC/Million PBMC, the “magnitude” value [2] was 0 SFC/Million PBMC and the “magnitude” value [3] was 0 SFC/Million PBMC. The “magnitude” value [4] was 0 SFC/Million PBMC, the “magnitude” value [5] was 0 SFC/Million PBMC and the “magnitude” value [6] was 0 SFC/Million PBMC. The “magnitude” value [7] was 260 SFC/Million PBMC, the “magnitude” value [8] was 230 SFC/Million PBMC and the “magnitude” value [9] was 320 SFC/Million PBMC.

In the case of RPMTYKAAL [B7-RL9], the “magnitude” value [1] is reported as 0 SFC/Million PBMC, the “magnitude” value [2] is reported as 0 SFC/Million PBMC and the “magnitude” value [3] is reported as 0 SFC/Million PBMC. For the same sequence, the “magnitude” value [4] was 0 SFC/Million PBMC, the “magnitude” value [5] was 0 SFC/Million PBMC and the “magnitude” value [6] was 120 SFC/Million PBMC. The “magnitude” value [7] was 180 SFC/Million PBMC, the “magnitude” value [8] was 600 SFC/Million PBMC and the “magnitude” value [9] was 360 SFC/Million PBMC.

SPAIFQSSM [B7-SM9] was tested, and the “magnitude” value [1] was 0 SFC/Million PBMC, the “magnitude” value [2] was 0 SFC/Million PBMC and the “magnitude” value [3] was 0 SFC/Million PBMC. The “magnitude” value [4] was 0 SFC/Million PBMC, the “magnitude” value [5] was 0 SFC/Million PBMC and the “magnitude” value [6] was 90 SFC/Million PBMC. For the same sequence, the “magnitude” value [7] was 130 SFC/Million PBMC, the “magnitude” value [8] was 1400 SFC/Million PBMC and the “magnitude” value [9] was 1000 SFC/Million PBMC.

In the case of SPRTLNAWV [B7-SV9], the “magnitude” value [1] is reported as 0 SFC/Million PBMC, the “magnitude” value [2] is reported as 0 SFC/Million PBMC and the “magnitude” value [3] is reported as 0 SFC/Million PBMC. The “magnitude” value [4] was 0 SFC/Million PBMC, the “magnitude” value [5] was 0 SFC/Million PBMC and the “magnitude” value [6] was 0 SFC/Million PBMC. For the same sequence, the “magnitude” value [7] was 0 SFC/Million PBMC, the “magnitude” value [8] was 680 SFC/Million PBMC and the “magnitude” value [9] was 120 SFC/Million PBMC.

With TPQDLNTML [B7-TL9] the “magnitude” value [1] was 0 SFC/Million PBMC, the “magnitude” value [2] was 0 SFC/Million PBMC and the “magnitude” value [3] was 0 SFC/Million PBMC. For the same sequence, the “magnitude” value [4] was 0 SFC/Million PBMC, the “magnitude” value [5] was 0 SFC/Million PBMC and the “magnitude” value [6] was 0 SFC/Million PBMC. For the same sequence, the “magnitude” value [7] was 0 SFC/Million PBMC, the “magnitude” value [8] was 740 SFC/Million PBMC and the “magnitude” value [9] was 1300 SFC/Million PBMC.
